Like-named read-outs stand apart in the source and are kept apart here.
Key:
HCT116 cells = test: Inhibition of HCT116 cells (MTS cell proliferation); assay type: cell-based; settings: for OD value 1 / OD value 2: 490 nm; for OD value 1 / OD value 2 / inhibition at 0.4 µM / inhibition at 0.8 µM / inhibition at 1.6 µM / inhibition at 3.2 µM / inhibition at 6.25 µM / inhibition at 12.5 µM / inhibition at 25 µM / inhibition at 50 µM / inhibition at 100 µM: 72 h; for inhibition at 0.4 µM / inhibition at 0.8 µM / inhibition at 1.6 µM / inhibition at 3.2 µM / inhibition at 6.25 µM / inhibition at 12.5 µM / inhibition at 25 µM / inhibition at 50 µM / inhibition at 100 µM / IC50: Homo sapiens, HCT-116
Description: Inhibition of HCT116 Cells Cells: HCT116 cells, ATCC Passage unknown, Mycoplasma free. Medium: DMEM Medium (GIBCO Cat #11995073) supplemented with 10% fetal bovine serum (Hyclone Cat #SH30396.03). Seeding: 750 cells/well (100 μL) into 96-wells plate, incubated overnight at 37° C. in a humidified, 5% CO2 atmosphere. Treatment: Test compounds and Gemcitabine were prepared in a serial dilution (1:2) by culture medium. Fifty microliters (50 uL) of serially diluted solutions were added into each well. The final concentrations of the positive control and test compounds were shown in the graphs. The cells were incubated for 72 hours after addition of the test compounds. MTS: 15 uL of MTS solution (Promega Cat #G5430) was added into each well and incubated with cells for 4 hours at 37° C. in a humidified, 5% CO2 atmosphere. Measurement: Absorbance at 490 nm was measured using MD Spectramax Plus384 spectrophotometer. The regression curves were calculated by the GraphPad Prism 5 using “log(inhibitor) vs response—variable slope”. Calculation: % of inhibition=(ODzero ctrl−OD compound)/ODzero ctrl*100.

Ovcar-3 cells = test: Inhibition of Ovcar 3 cells (MTS cell proliferation); assay type: cell-based; settings: for OD value 1 / OD value 2: 490 nm; for OD value 1 / OD value 2 / inhibition at 0.4 µM / inhibition at 0.8 µM / inhibition at 1.6 µM / inhibition at 3.2 µM / inhibition at 6.25 µM / inhibition at 12.5 µM / inhibition at 25 µM / inhibition at 50 µM / inhibition at 100 µM: 72 h; for inhibition at 0.4 µM / inhibition at 0.8 µM / inhibition at 1.6 µM / inhibition at 3.2 µM / inhibition at 6.25 µM / inhibition at 12.5 µM / inhibition at 25 µM / inhibition at 50 µM / inhibition at 100 µM / IC50: Homo sapiens, OVCAR-3
Description: Inhibition of Ovcar 3 Cells Cells: Ovcar-3 cells, ATCC Passage 4, Mycoplasma free. Medium: RPMI-1640 Medium (GIBCO Cat #22400121) supplemented with 10% fetal bovine serum (Hyclone Cat #SH30396.03). Seeding: 3,000 cells/well (100 uL) were seeded into 96-wells plate, incubated overnight at 37° C. in a humidified, 5% CO2 atmosphere. Treatment: Test compounds and Gemcitabine were prepared in a serial dilution (1:2) by culture medium. Fifty microliters (50 uL) of serially diluted solutions were added into each well. The final concentrations of the positive control and test compounds were shown in the graphs. The cells were incubated for 72 hours after addition of the test compounds. MTS: 15 uL of MTS solution (Promega Cat #G5430) was added into each well and incubated with cells for 4 hours at 37° C. in a humidified, 5% CO2 atmosphere. Measurement: Absorbance at 490 nm was measured using MD Spectramax Plus384 spectrophotometer. The regression curves were calculated by the GraphPad Prism 5 using “log(inhibitor) vs response—variable slope”.

Compound: Nc1ccn([C@@H]2O[C@H](CO)[C@@H](O)C2(F)F)c(=O)n1 [Gemcitabine]
- OD value 1 (HCT116 cells; 0.400 uM, replicate 1): 0.799
- OD value 2 (HCT116 cells; 0.400 uM, replicate 2): 0.766
- OD value 1 (HCT116 cells; 0.800 uM, replicate 1): 0.619
- OD value 2 (HCT116 cells; 0.800 uM, replicate 2): 0.723
- OD value 1 (HCT116 cells; 1.600 uM, replicate 1): 0.452
- OD value 2 (HCT116 cells; 1.600 uM, replicate 2): 0.535
- OD value 1 (HCT116 cells; 3.200 uM, replicate 1): 0.083
- OD value 2 (HCT116 cells; 3.200 uM, replicate 2): 0.083
- OD value 1 (HCT116 cells; 6.250 uM, replicate 1): 0.076
- OD value 2 (HCT116 cells; 6.250 uM, replicate 2): 0.065
- OD value 1 (HCT116 cells; 12.500 uM, replicate 1): 0.065
- OD value 2 (HCT116 cells; 12.500 uM, replicate 2): 0.063
- OD value 1 (HCT116 cells; 25.000 uM, replicate 1): 0.075
- OD value 2 (HCT116 cells; 25.000 uM, replicate 2): 0.061
- OD value 1 (HCT116 cells; 50.000 uM, replicate 1): 0.036
- OD value 2 (HCT116 cells; 50.000 uM, replicate 2): 0.046
- OD value 1 (HCT116 cells; 100.000 uM, replicate 1): 0.037
- OD value 2 (HCT116 cells; 100.000 uM, replicate 2): 0.037
- inhibition at 0.4 µM (HCT116 cells; 0.400 uM, replicate 1, read-out: % of inhibition 1): 18.8%
- inhibition at 0.4 µM (HCT116 cells; 0.400 uM, replicate 2, read-out: % of inhibition 2): 20.9%
- inhibition at 0.8 µM (HCT116 cells; 0.800 uM, replicate 1, read-out: % of inhibition 1): 37.2%
- inhibition at 0.8 µM (HCT116 cells; 0.800 uM, replicate 2, read-out: % of inhibition 2): 25.3%
- inhibition at 1.6 µM (HCT116 cells; 1.600 uM, replicate 1, read-out: % of inhibition 1): 54.1%
- inhibition at 1.6 µM (HCT116 cells; 1.600 uM, replicate 2, read-out: % of inhibition 2): 44.7%
- inhibition at 3.2 µM (HCT116 cells; 3.200 uM, replicate 1, read-out: % of inhibition 1): 91.6%
- inhibition at 3.2 µM (HCT116 cells; 3.200 uM, replicate 2, read-out: % of inhibition 2): 91.4%
- inhibition at 6.25 µM (HCT116 cells; 6.250 uM, replicate 1, read-out: % of inhibition 1): 92.3%
- inhibition at 6.25 µM (HCT116 cells; 6.250 uM, replicate 2, read-out: % of inhibition 2): 93.3%
- inhibition at 12.5 µM (HCT116 cells; 12.500 uM, replicate 1, read-out: % of inhibition 1): 93.4%
- inhibition at 12.5 µM (HCT116 cells; 12.500 uM, replicate 2, read-out: % of inhibition 2): 93.5%
- inhibition at 25 µM (HCT116 cells; 25.000 uM, replicate 1, read-out: % of inhibition 1): 92.4%
- inhibition at 25 µM (HCT116 cells; 25.000 uM, replicate 2, read-out: % of inhibition 2): 93.7%
- inhibition at 50 µM (HCT116 cells; 50.000 uM, replicate 1, read-out: % of inhibition 1): 96.4%
- inhibition at 50 µM (HCT116 cells; 50.000 uM, replicate 2, read-out: % of inhibition 2): 95.2%
- inhibition at 100 µM (HCT116 cells; 100.000 uM, replicate 1, read-out: % of inhibition 1): 96.3%
- inhibition at 100 µM (HCT116 cells; 100.000 uM, replicate 2, read-out: % of inhibition 2): 96.2%
- IC50 (HCT116 cells; Table 17, read-out: HCT-116* 50% inhibition concentration): 1.29 µM
- IC50 (HCT116 cells; Table 26, HCT116, 72 hours, read-out: 50% viability conc.): 1.29 µM
- IC50 (HCT116 cells; Table 26, HCT116, 72 hours, read-out: IC50): 1.42 µM
- Maximal inhibition % (HCT116 cells; Table 26, HCT116, 72 hours): 96.25%
- OD value 1 (Ovcar-3 cells; 0.400 μM, replicate 1): 0.591
- OD value 2 (Ovcar-3 cells; 0.400 μM, replicate 2): 0.575
- OD value 1 (Ovcar-3 cells; 0.800 μM, replicate 1): 0.490
- OD value 2 (Ovcar-3 cells; 0.800 μM, replicate 2): 0.460
- OD value 1 (Ovcar-3 cells; 1.600 μM, replicate 1): 0.440
- OD value 2 (Ovcar-3 cells; 1.600 μM, replicate 2): 0.453
- OD value 1 (Ovcar-3 cells; 3.200 μM, replicate 1): 0.411
- OD value 2 (Ovcar-3 cells; 3.200 μM, replicate 2): 0.432
- OD value 1 (Ovcar-3 cells; 6.250 μM, replicate 1): 0.363
- OD value 2 (Ovcar-3 cells; 6.250 μM, replicate 2): 0.388
- OD value 1 (Ovcar-3 cells; 12.500 μM, replicate 1): 0.257
- OD value 2 (Ovcar-3 cells; 12.500 μM, replicate 2): 0.234
- OD value 1 (Ovcar-3 cells; 25.000 μM, replicate 1): 0.040
- OD value 2 (Ovcar-3 cells; 25.000 μM, replicate 2): 0.009
- OD value 1 (Ovcar-3 cells; 50.000 μM, replicate 1): 0.020
- OD value 2 (Ovcar-3 cells; 50.000 μM, replicate 2): 0.010
- OD value 1 (Ovcar-3 cells; 100.000 μM, replicate 1): 0.012
- OD value 2 (Ovcar-3 cells; 100.000 μM, replicate 2): 0.011
- inhibition at 0.4 µM (Ovcar-3 cells; 0.400 μM, replicate 1, read-out: % of inhibition 1): 1.5%
- inhibition at 0.4 µM (Ovcar-3 cells; 0.400 μM, replicate 2, read-out: % of inhibition 2): -4.93%
- inhibition at 0.8 µM (Ovcar-3 cells; 0.800 μM, replicate 1, read-out: % of inhibition 1): 18.3%
- inhibition at 0.8 µM (Ovcar-3 cells; 0.800 μM, replicate 2, read-out: % of inhibition 2): 16.1%
- inhibition at 1.6 µM (Ovcar-3 cells; 1.600 μM, replicate 1, read-out: % of inhibition 1): 26.6%
- inhibition at 1.6 µM (Ovcar-3 cells; 1.600 μM, replicate 2, read-out: % of inhibition 2): 17.4%
- inhibition at 3.2 µM (Ovcar-3 cells; 3.200 μM, replicate 1, read-out: % of inhibition 1): 31.5%
- inhibition at 3.2 µM (Ovcar-3 cells; 3.200 μM, replicate 2, read-out: % of inhibition 2): 21.2%
- inhibition at 6.25 µM (Ovcar-3 cells; 6.250 μM, replicate 1, read-out: % of inhibition 1): 39.5%
- inhibition at 6.25 µM (Ovcar-3 cells; 6.250 μM, replicate 2, read-out: % of inhibition 2): 29.2%
- inhibition at 12.5 µM (Ovcar-3 cells; 12.500 μM, replicate 1, read-out: % of inhibition 1): 57.2%
- inhibition at 12.5 µM (Ovcar-3 cells; 12.500 μM, replicate 2, read-out: % of inhibition 2): 57.3%
- inhibition at 25 µM (Ovcar-3 cells; 25.000 μM, replicate 1, read-out: % of inhibition 1): 93.4%
- inhibition at 25 µM (Ovcar-3 cells; 25.000 μM, replicate 2, read-out: % of inhibition 2): 98.4%
- inhibition at 50 µM (Ovcar-3 cells; 50.000 μM, replicate 1, read-out: % of inhibition 1): 96.7%
- inhibition at 50 µM (Ovcar-3 cells; 50.000 μM, replicate 2, read-out: % of inhibition 2): 98.1%
- inhibition at 100 µM (Ovcar-3 cells; 100.000 μM, replicate 1, read-out: % of inhibition 1): 98%
- inhibition at 100 µM (Ovcar-3 cells; 100.000 μM, replicate 2, read-out: % of inhibition 2): 98%
- IC50 (Ovcar-3 cells; Table 18, read-out: OVCAR-3* 50% inhibition concentration): 11.2 µM
- IC50 (Ovcar-3 cells; Table 26, Ovcar3, 72 hours, read-out: 50% viability conc.): 11.2 µM
- IC50 (Ovcar-3 cells; Table 26, Ovcar3, 72 hours, read-out: IC50): 9.87 µM
- Maximal inhibition % (Ovcar-3 cells; Table 26, Ovcar3, 72 hours): 98%

Reference: patent US9073903B2, “Imidazole-2,4-dione inhibitors of casein kinase 1” (Jasco Pharmaceuticals, LLC, priority 2010, dated 2015)
